In ChEMBL document CHEMBL4616705, “Computer-Aided Fragment Growing Strategies to Design Dual Inhibitors of Soluble Epoxide Hydrolase and LTA4 Hydrolase” (ACS Med Chem Lett, 2020):

Columns and labels:
[1] = molecular target: T1, Leukotriene A-4 hydrolase (Homo sapiens) (UniProt P09960); test: (§1) Inhibition of recombinant human full length C-terminal His6-tagged LTA4H expressed in Escherichia coli BL21 DE3 cells assessed as reduction in amino-4-methylcoumarin formation using L-arginine-7-amino-4-methylcoumarin as substrate at 10 uM incubated for 30 mins followed by substrate addition and measured for 30 mins by fluorescence based assay relative to control
T1 sequence (whole entry): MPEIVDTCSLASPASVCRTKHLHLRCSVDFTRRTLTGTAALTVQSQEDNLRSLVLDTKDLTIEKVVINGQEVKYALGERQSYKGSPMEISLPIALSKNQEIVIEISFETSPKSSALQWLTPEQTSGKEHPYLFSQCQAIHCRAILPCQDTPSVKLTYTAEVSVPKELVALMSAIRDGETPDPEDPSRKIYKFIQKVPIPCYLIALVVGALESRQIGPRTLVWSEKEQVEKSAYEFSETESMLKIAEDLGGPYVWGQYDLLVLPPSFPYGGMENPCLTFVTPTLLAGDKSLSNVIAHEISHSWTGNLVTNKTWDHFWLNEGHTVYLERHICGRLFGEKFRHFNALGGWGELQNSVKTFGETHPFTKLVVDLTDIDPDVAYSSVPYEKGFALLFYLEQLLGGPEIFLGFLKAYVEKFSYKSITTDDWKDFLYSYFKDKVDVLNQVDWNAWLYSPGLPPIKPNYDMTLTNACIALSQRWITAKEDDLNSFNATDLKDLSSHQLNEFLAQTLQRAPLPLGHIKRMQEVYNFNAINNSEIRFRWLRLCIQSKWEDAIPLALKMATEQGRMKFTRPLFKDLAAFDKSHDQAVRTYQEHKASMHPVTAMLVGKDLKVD

[2] = molecular target: T2, Bifunctional epoxide hydrolase 2 (Homo sapiens, UniProt P34913); test: (§2) Inhibition of recombinant human full length sEH (1 to 555 residues) expressed in Escherichia coli BL21 DE3 cells assessed as reduction in 6-methoxynaphthaldehyde formation using PHOME as substrate incubated for 45 mins followed by substrate addition and measured for 45 mins by fluorescence based assay
T2 sequence (P34913 whole entry): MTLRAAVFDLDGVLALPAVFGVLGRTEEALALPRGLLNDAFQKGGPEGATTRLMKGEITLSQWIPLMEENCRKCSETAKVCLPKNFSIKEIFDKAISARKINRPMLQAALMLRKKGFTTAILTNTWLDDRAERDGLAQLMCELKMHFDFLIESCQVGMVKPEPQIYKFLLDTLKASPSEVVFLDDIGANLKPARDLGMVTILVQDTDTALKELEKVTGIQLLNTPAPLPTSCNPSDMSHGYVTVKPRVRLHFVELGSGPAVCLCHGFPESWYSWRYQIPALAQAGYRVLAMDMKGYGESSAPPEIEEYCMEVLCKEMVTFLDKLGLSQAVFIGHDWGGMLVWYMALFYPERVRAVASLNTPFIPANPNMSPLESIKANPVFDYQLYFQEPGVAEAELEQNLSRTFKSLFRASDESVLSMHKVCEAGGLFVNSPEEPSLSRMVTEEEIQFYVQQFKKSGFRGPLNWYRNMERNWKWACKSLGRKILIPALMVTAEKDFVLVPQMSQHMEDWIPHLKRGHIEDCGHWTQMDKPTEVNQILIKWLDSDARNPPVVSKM

[3] = molecular target: T3, Bifunctional epoxide hydrolase 2 (Homo sapiens) (UniProt P34913); test: as §2, with “as substrate at 10 uM incubated for” for “as substrate incubated for”, “based assay relative to control” for “based assay”
T3 sequence (whole entry): T2 sequence (P34913 whole entry)

[4] = molecular target: T4, Leukotriene A-4 hydrolase (Homo sapiens, UniProt P09960); test: as §1, with “substrate” for “substrate at 10 uM”, “assay” for “assay relative to control”
T4 sequence (P09960 whole entry): T1 sequence (whole entry)

inhibition [1] [%] | IC50 [2] [µM] | inhibition [3] [%] | IC50 [4] [µM] | SMILES
16 | 16 | – | – | O=C(CCc1ccc(OCc2ccccc2)cc1)Nc1ccc(OCCN2CCCCCC2)cc1
4 | 10 | – | – | O=C(CCc1ccc(OCc2ccccc2)cc1)NCC1CCN(c2cccc(Br)c2)C1 (stereo not given)
9 | – | 6 | – | O=C(CCc1ccc(OCc2ccccc2)cc1)Nc1ccc(S(=O)(=O)NCC(F)(F)F)cc1
– | – | 7 | 18.3 | O=C(CCc1ccc(OCc2ccccc2)cc1)NCC1CCN(CCCc2ccccc2)CC1
– | 0.5 | – | – | O=C(CCc1ccc(OCc2ccccc2)cc1)NCC1CCN(Cc2cccs2)CC1
– | 15 | – | – | O=C(CCc1ccc(OCc2ccccc2)cc1)NCC1CCCN(CCc2ccccc2)C1 (stereo not given)
16 | 1.3 | – | – | O=C(CCc1ccc(OCc2ccccc2)cc1)Nc1ccc(CCN2CCOCC2)cc1
– | 4.7 | – | – | CCOP(=O)(OCC)c1ccc(NC(=O)CCc2ccc(OCc3ccccc3)cc2)cc1
– | 28 | – | 3.2 | O=C(CCc1ccc(OCc2ccccc2)cc1)NCCC1CCN(Cc2ccccc2)C1 (stereo not given)
